Data on 22 compounds can be found in patent US20170355687A1, “ANTIBACTERIAL BENZOTHIAZOLE DERIVATIVES” (Actelion Pharmaceuticals Ltd, priority 2014, published 2017).

Values after ≈ are worked out from the molar mass of the structure shown. Counter-ions that a name gives are not always drawn. Like-named read-outs stand apart in the source and are kept apart here. Some results are limits rather than exact numbers.

In general, MIC refers to the lowest concentration found to suppress growth.

Holding throughout (assay): Bacterial growth minimal inhibitory concentration, microdilution in cation-adjusted Mueller-Hinton Broth (CLSI M7-A7)
What all share (type): cell-based

Test [1] has as its system E. coli ATCC25922. To be noted: for MIC: Escherichia coli. On the procedure:
(§1) Minimal Inhibitory Concentrations (MICs; mg/L) were determined in cation-adjusted Mueller-Hinton Broth by a microdilution method following the description given in “Methods for Dilution Antimicrobial Susceptibility Tests for Bacteria that Grow Aerobically”, Approved standard, 7th ed., Clinical and Laboratory Standards Institute (CLSI) Document M7-A7, Wayne, Pa., USA (2006).
(§2) All Example compounds were tested against several Gram-positive and Gram-negative bacteria. […] K pneumoniae A-651 is a multiply-resistant (in particular quinolone-resistant) strain, while E. coli ATCC25922 and P. aeruginosa ATCC27853 are quinolone-sensitive strains.

In test [2] the test system is K. Pneumoniae A-651. To be noted: for MIC: Klebsiella pneumoniae, read-out: MIC for K. Pneumoniae A-651. The protocol:
as §1, §2

Test [3] deals with P. aeruginosa ATCC27853. To be noted: for MIC: Pseudomonas aeruginosa. On the procedure:
as §1, §2

The mark [4] stands for this setting: ATCC25922, quinolone-sensitive strain, read-out: MIC for E. coli ATCC25922.
Where [5] appears, read: multiply-resistant (in particular quinolone-resistant) strain.
[6] abbreviates: ATCC27853, quinolone-sensitive strain, read-out: MIC for P. aeruginosa ATCC27853.

Take `COc1ccc(-c2ccc3nc(CCC(C)(C(=O)NO)S(C)(=O)=O)sc3c2)cc1` (racemic) [RE1, (RS)-N-hydroxy-4-(6-(4-methoxyphenyl)benzo[d]thiazol-2-yl)-2-methyl-2-(methylsulfonyl)butanamide]: the results for the MIC in test [1] (setting [4]), in test [2] (setting [5]) and in test [3] (setting [6]) were 0.25 µg/mL (≈ 0.575 µM), 2 µg/mL (≈ 4.6 µM) and 16 µg/mL (≈ 36.8 µM), respectively.
For `CC(CCc1nc2ccc(C#Cc3ccc(CO)cc3)cc2s1)(C(=O)NO)S(C)(=O)=O` (racemic) [RE2, (RS)-N-hydroxy-4-(6-((4-(hydroxymethyl)phenyl)ethynyl)benzo[d]thiazol-2-yl)-2-methyl-2-(methylsulfonyl)butanamide], the MIC in test [1] (setting [4]) stood at 0.125 µg/mL (≈ 0.273 µM); in test [2] (setting [5]) it was 0.5 µg/mL (≈ 1.09 µM); in test [3] (setting [6]) it was 16 µg/mL (≈ 34.9 µM).
The corresponding values for `CC(CCc1nc2ccc(C#Cc3ccc(C4(N)COC4)cc3)cc2s1)(C(=O)NO)S(C)(=O)=O.Cc1ccc(S(=O)(=O)O)cc1` (racemic) [RE3, (RS)-4-(6-((4-(3-aminooxetan-3-yl)phenyl)ethynyl)-benzo[d]thiazol-2-yl)-N-hydroxy-2-methyl-2-(methylsulfonyl)butanamide 4-methyl-benzenesulfonate] are 4 µg/mL, 1 µg/mL and 8 µg/mL.
The corresponding values for `CC(CCc1nc2ccc(C#CC#CCO)cc2s1)(C(=O)NO)S(C)(=O)=O` (racemic) [RE4, (RS)-N-hydroxy-4-(6-(5-hydroxypenta-1,3-diyn-1-yl)benzo[d]thiazol-2-yl)-2-methyl-2-(methylsulfonyl)butanamide] are 0.5 µg/mL (≈ 1.23 µM), 8 µg/mL (≈ 19.7 µM) and 1 µg/mL (≈ 2.46 µM).
As to `C[C@@](CCc1nc2ccc(C#CC#C[C@]3(O)C[C@@H](CO)C3)cc2s1)(C(=O)NO)S(C)(=O)=O` (relative stereo) [Example 21, (R)-N-hydroxy-4-(6-((cis-1-hydroxy-3-(hydroxymethyl)cyclobutyl)buta-1,3-diyn-1-yl)benzo[d]thiazol-2-yl)-2-methyl-2-(methylsulfonyl)butanamide], the “MIC for E. coli ATCC25922” value in test [1] (quinolone-sensitive strain) is 1 µg/mL. In addition, in test [2] (setting [5]), the “MIC for K. Pneumoniae A-651” value came to 2 µg/mL. For the same compound, in test [3] (quinolone-sensitive strain), the “MIC for P. aeruginosa ATCC27853” value was found to be 2 µg/mL.
On to `C[C@@](CCc1nc2ccc(C#CC#C[C@@]3(F)C[C@@H]3CO)cc2s1)(C(=O)NO)S(C)(=O)=O` (relative stereo) [Example 23, (R)-4-(6-(((1R*,2R*)-1-fluoro-2-(hydroxymethyl)cyclopropyl)buta-1,3-diyn-1-yl)benzo[d]thiazol-2-yl)-N-hydroxy-2-methyl-2-(methylsulfonyl)butanamide], for which the MIC is ≤ 0.063 µg/mL in test [1] (setting [4]), 0.25 µg/mL (≈ 0.538 µM) in test [2] (setting [5]) and 0.5 µg/mL (≈ 1.08 µM) in test [3] (setting [6]).
In the same order, the values of `C[C@@](CCc1nc2ccc(C#CC#C[C@H]3C[C@]3(F)CO)cc2s1)(C(=O)NO)S(C)(=O)=O` (relative stereo) [Example 24, (R)-4-(6-(((1R*,2R*)-2-fluoro-2-(hydroxymethyl)cyclopropyl)buta-1,3-diyn-1-yl)benzo[d]thiazol-2-yl)-N-hydroxy-2-methyl-2-(methylsulfonyl)butanamide] are ≤ 0.063 µg/mL, 0.25 µg/mL (≈ 0.538 µM) and 0.25 µg/mL (≈ 0.538 µM).
In the same order, the values of `C[C@@](CCc1nc2ccc(C#CC#CC3(O)COC3)cc2s1)(C(=O)NO)S(C)(=O)=O` (single isomer, unassigned) [Example 1] are 0.25 µg/mL (≈ 0.557 µM), 0.25 µg/mL (≈ 0.557 µM) and 1 µg/mL (≈ 2.23 µM).
In the same order, the values of `COc1ccc(-c2ccc3nc(CC[C@](C)(C(=O)NO)S(C)(=O)=O)sc3c2)c(F)c1` [Example 2, (R)-4-(6-(2-fluoro-4-methoxyphenyl)benzo[d]thiazol-2-yl)-N-hydroxy-2-methyl-2-(methylsulfonyl)butanamide] are ≤ 0.063 µg/mL, 0.25 µg/mL (≈ 0.552 µM) and 2 µg/mL (≈ 4.42 µM).
Consider `C[C@@](CCc1nc2ccc(C#Cc3ccc(C4(O)COC4)cc3)cc2s1)(C(=O)NO)S(C)(=O)=O` [Example 3, (R)-N-hydroxy-4-(6-((4-(3-hydroxyoxetan-3-yl)phenyl)ethynyl)benzo[d]thiazol-2-yl)-2-methyl-2-(methylsulfonyl)butanamide], for which the MIC in test [1] (setting [4]) worked out at 4 µg/mL (≈ 7.99 µM); in test [2] (setting [5]), 1 µg/mL (≈ 2 µM); in test [3] (setting [6]), 8 µg/mL (≈ 16 µM).
For the compound `CC(C)(O)C#CC#Cc1ccc2nc(CC[C@](C)(C(=O)NO)S(C)(=O)=O)sc2c1` [Example 4, (R)-N-hydroxy-4-(6-(5-hydroxy-5-methylhexa-1,3-diyn-1-yl)benzo[d]thiazol-2-yl)-2-methyl-2-(methylsulfonyl)butanamide], the MIC in test [1] (setting [4]) came out at 0.5 µg/mL (≈ 1.15 µM); in test [2] (setting [5]) it was 0.5 µg/mL (≈ 1.15 µM); in test [3] (setting [6]), 1 µg/mL (≈ 2.3 µM).
For the compound `C[C@@](CCc1nc2ccc(C#CC#C[C@H](O)CO)cc2s1)(C(=O)NO)S(C)(=O)=O` [Example 5, (R)-4-(6-((S)-5,6-dihydroxyhexa-1,3-diyn-1-yl)benzo[d]thiazol-2-yl)-N-hydroxy-2-methyl-2-(methylsulfonyl)butanamide], the figures for the MIC in test [1] (setting [4]), in test [2] (setting [5]) and in test [3] (setting [6]) were 1 µg/mL (≈ 2.29 µM), 8 µg/mL (≈ 18.3 µM) and 1 µg/mL (≈ 2.29 µM), respectively.
For `CC(C)(N)C#CC#Cc1ccc2nc(CC[C@](C)(C(=O)NO)S(C)(=O)=O)sc2c1` [Example 6, (R)-4-(6-(5-amino-5-methylhexa-1,3-diyn-1-yl)benzo[d]thiazol-2-yl)-N-hydroxy-2-methyl-2-(methylsulfonyl)butanamide], the results for the MIC in test [1] (setting [4]), in test [2] (setting [5]) and in test [3] (setting [6]) were 0.25 µg/mL (≈ 0.577 µM), 1 µg/mL (≈ 2.31 µM) and 1 µg/mL (≈ 2.31 µM), respectively.
As to `C[C@@](CCc1nc2ccc(C#CC#C[C@H]3C[C@@H]3CO)cc2s1)(C(=O)NO)S(C)(=O)=O` [Example 7, (R)-N-hydroxy-4-(6-(((1S,2S)-2-(hydroxymethyl)cyclopropyl)buta-1,3-diyn-1-yl)benzo[d]thiazol-2-yl)-2-methyl-2-(methylsulfonyl)butanamide], the MIC in test [1] (setting [4]) is ≤ 0.063 µg/mL; in test [2] (setting [5]) it was 0.125 µg/mL (≈ 0.28 µM); in test [3] (setting [6]) it was 0.5 µg/mL (≈ 1.12 µM).
The corresponding values for `C[C@@](CCc1nc2ccc(C#CC#CC3(CO)CC3)cc2s1)(C(=O)NO)S(C)(=O)=O` [Example 8, (R)-N-hydroxy-4-(6-((1-(hydroxymethyl)cyclopropyl)buta-1,3-diyn-1-yl)benzo[d]thiazol-2-yl)-2-methyl-2-(methylsulfonyl)butanamide] are 0.25 µg/mL (≈ 0.56 µM), 0.5 µg/mL (≈ 1.12 µM) and 0.5 µg/mL (≈ 1.12 µM).
The corresponding values for `C[C@@](CCc1nc2ccc(C#CC#CC3(N)COC3)cc2s1)(C(=O)NO)S(C)(=O)=O` [Example 9, (R)-4-(6-((3-aminooxetan-3-yl)buta-1,3-diyn-1-yl)benzo[d]thiazol-2-yl)-N-hydroxy-2-methyl-2-(methylsulfonyl)butanamide] are 1 µg/mL (≈ 2.23 µM), 2 µg/mL (≈ 4.47 µM) and 2 µg/mL (≈ 4.47 µM).
Take `C[C@@](CCc1nc2ccc(C#CC#CC3(N)CC3)cc2s1)(C(=O)NO)S(C)(=O)=O` [Example 10, (R)-4-(6-((1-aminocyclopropyl)buta-1,3-diyn-1-yl)benzo[d]thiazol-2-yl)-N-hydroxy-2-methyl-2-(methylsulfonyl)butanamide hydrochloride]: the MIC worked out at 0.125 µg/mL in test [1] (ATCC25922, read-out: MIC for E. coli ATCC25922); 0.25 µg/mL in test [2]; 1 µg/mL in test [3] (ATCC27853, read-out: MIC for P. aeruginosa ATCC27853).
Consider `C[C@@](CCc1nc2ccc(C#Cc3ccc(C4(CO)CC4)cc3)cc2s1)(C(=O)NO)S(C)(=O)=O` [Example 11, (R)-N-hydroxy-4-(6-((4-(1-(hydroxymethyl)cyclopropyl)phenyl)ethynyl)benzo[d]thiazol-2-yl)-2-methyl-2-(methylsulfonyl)butanamide], for which the MIC in test [1] (setting [4]) is 0.125 µg/mL (≈ 0.251 µM); in test [2] (setting [5]) it was 0.5 µg/mL (≈ 1 µM); in test [3] (setting [6]), 4 µg/mL (≈ 8.02 µM).
The corresponding values for `C[C@@](CCc1nc2ccc(C#CC#CC3(CO)CCC3)cc2s1)(C(=O)NO)S(C)(=O)=O` [Example 12, (R)-N-hydroxy-4-(6-((1-(hydroxymethyl)cyclobutyl)buta-1,3-diyn-1-yl)benzo[d]thiazol-2-yl)-2-methyl-2-(methylsulfonyl)butanamide] are 0.125 µg/mL (≈ 0.271 µM), 0.5 µg/mL (≈ 1.09 µM) and 2 µg/mL (≈ 4.34 µM).
For `C[C@@](CCc1nc2ccc(C#CC#C[C@@H]3C[C@@H](O)[C@@H](O)C3)cc2s1)(C(=O)NO)S(C)(=O)=O` [Example 13, (R)-4-(6-(((1s,3R,4S)-3,4-dihydroxycyclopentyl)buta-1,3-diyn-1-yl)benzo[d]thiazol-2-yl)-N-hydroxy-2-methyl-2-(methylsulfonyl)butanamide], in test [1] (quinolone-sensitive strain), the “MIC for E. coli ATCC25922” value is 0.25 µg/mL. Also, the “MIC for K. Pneumoniae A-651” value in test [2] (setting [5]) is 0.5 µg/mL. Moreover, the “MIC for P. aeruginosa ATCC27853” value in test [3] (quinolone-sensitive strain) was 1 µg/mL.
For the compound `C[C@@](CCc1nc2ccc(C#CC#CCC3(O)COC3)cc2s1)(C(=O)NO)S(C)(=O)=O` [Example 14, (R)-N-hydroxy-4-(6-(5-(3-hydroxyoxetan-3-yl)penta-1,3-diyn-1-yl)benzo[d]thiazol-2-yl)-2-methyl-2-(methylsulfonyl)butanamide], the MIC in test [1] (setting [4]) turned out to be 0.5 µg/mL (≈ 1.08 µM); in test [2] (setting [5]), 1 µg/mL (≈ 2.16 µM); in test [3] (setting [6]) it was 1 µg/mL (≈ 2.16 µM).
Take `C[C@@]1(C#CC#Cc2ccc3nc(CC[C@](C)(C(=O)NO)S(C)(=O)=O)sc3c2)C[C@H]1CO` [Example 15, (R)-N-hydroxy-4-(6-(((1R,2R)-2-(hydroxymethyl)-1-methylcyclopropyl)buta-1,3-diyn-1-yl)benzo[d]thiazol-2-yl)-2-methyl-2-(methylsulfonyl)butanamide]: the MIC in test [1] (setting [4]) amounted to 0.125 µg/mL (≈ 0.271 µM); in test [2] (setting [5]), 0.5 µg/mL (≈ 1.09 µM); in test [3] (setting [6]), 1 µg/mL (≈ 2.17 µM).
